ChEMBL document CHEMBL5726172, “Spiro-cyclic amine derivatives as S1P modulators” (2019)

Biological target: Sphingosine 1-phosphate receptor 5 (Homo sapiens, UniProt Q9H228)
Assay: In Vitro Functional Activity (Agonism) on Human S1P5 Receptors: The CHO-human-S1P5-Aeqorin assay was bought from Euroscreen, Brussels (Euroscreen, Technical dossier, Human Lysophospholid S1P5 (Edg8) receptor, DNA clone and CHO AequoScreen™ recombinant cell-line, catalog no: ES-593-A, September 2006). Human-S1P5-Aequorin cells express mitochondrial targeted apo-Aequorin. Cells have to be loaded with coelanterazine, in order to reconstitute active Aequorin. After binding of agonists to the human S1P5 receptor the intracellular calcium concentration increases and binding of calcium to the apo-Aequorin/coelenterazine complex leads to an oxidation reaction of coelenterazine, which results in the production of apo-Aequorin, coelenteramide, CO2 and light ([…]max 469 nm). This luminescent response is dependent on the agonist concentration. Luminescence is measured using the MicroBeta Jet (Perkin Elmer). Agonistic effects of compounds are expressed as pEC50. Compounds were tested at a 10 points half log concentration range, and 3 independent experiments were performed in single point's measurements.
Format: cell-based

Sequence of Sphingosine 1-phosphate receptor 5 (Q9H228 whole entry): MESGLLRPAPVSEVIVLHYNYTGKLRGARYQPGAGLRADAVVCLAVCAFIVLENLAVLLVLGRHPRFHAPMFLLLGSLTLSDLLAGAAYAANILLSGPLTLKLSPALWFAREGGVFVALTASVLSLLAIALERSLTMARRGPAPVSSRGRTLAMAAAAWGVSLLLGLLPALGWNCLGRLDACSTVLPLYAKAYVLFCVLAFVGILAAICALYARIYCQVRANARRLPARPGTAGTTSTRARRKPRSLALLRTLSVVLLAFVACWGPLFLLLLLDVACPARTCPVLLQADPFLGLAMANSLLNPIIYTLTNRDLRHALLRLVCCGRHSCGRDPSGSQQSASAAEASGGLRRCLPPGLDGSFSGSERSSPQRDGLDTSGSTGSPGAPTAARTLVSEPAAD

| SMILES | EC50 [nM] |
| --- | --- |
| CC(C)c1cccc(F)c1COc1ccc2c(c1)OCC21CCN(CCC(=O)O)CC1 | 50.1 |
| O=C(O)CCN1CCCC2(COc3cc(OCc4c(Cl)cccc4C(F)(F)F)ccc32)C1 (configuration not stated) | 50.1 |
